Where two headings read alike, the source gives them in different places. Non-standard residues stand in square brackets, D forms with d. No end group written: not given here.

For assay [1], the system named is WEHI cells. Description: apoptosis of peptide-loaded WEHI cells by cytolytic T cell clones, with inhibitors. It is filed as cell-based, mouse. To be noted: p21-35 loaded WEHI cells and a cytolytic T cell clone. On the procedure:
For inhibition of GZ-B activity, Z-AAD-CMK (Calbiochem) or 3,4-dichloroiso-coumarin (DCIC) (SIGMA) were added at indicated concentrations during all the co-culture period.
Experiments were carried out with p21-35-loaded CD11c dendritic (FIG. 13b: left panel) or WEHI cells (FIG. 13b: right panel). Upon incubation with R3TB7 virtually all dendritic cells (DC) or Wehi cells were induced into apoptosis as measured by caspase 3 activation.
Apoptosis can be induced by either the Fas-FasL pathway or by secretion of cytotoxic granules containing granzymes. Attempts were made to inhibit each of these pathways. Addition of increasing concentrations of an antibody towards FasL, or of granzyme B inhibitors, to a cell culture containing p21-35 loaded WEHI cells and a cytolytic T cell clone, increased the number of surviving WEHI cells in a dose-dependent manner (FIG. 13c). In a number of experiments it was shown that the anti-FasL antibody restored up to 80% of WEHI cell survival.
To further ascertain that APC lysis required direct contact with cytolytic T cells through MHC class II presentation of p21-35, an experiment was carried out in which two identical populations of Wehi cells were loaded with either p21-35 or with an irrelevant peptide (p71-85). These two populations could be distinguished by differential CFSE labelling. It can be seen from FIG. 13e that, while WEHI cells presenting p21-35 were fully lysed, only 40% of p71-85-loaded cells were affected.

The next assay has as its system CD4+CD25(−) T cells. The assay is described as follows: bystander suppression of anti-CD3 activated CD4+CD25(−) T cells. The format is cell-based, mouse. Particulars: 72 h, 2 concentrations (2mM, 4 mM). On the procedure: Bystander suppression assays. Target CD4+CD25− T cells and T helper clones were labelled with 125nM CFSE (Molecular Probes) for 15 minutes in PBS at 37° C. The reaction was stopped by washing the cells with PBS containing 30% FBS. These cells (3×10^5) were cocultured with 10^5 cytotoxic CD4+ T cell clones and cell depleted splenocytes with 1 μg/ml anti-CD3 antibody (eBioscience), For suppression of T helper clones, 10^5 cells were co-cultured with the same number of cytotoxic cells and T cell depleted splenocytes. After 48 h or 72 hours, cells were collected and analysed by flow cytometry.
First, the capacity of Tregs was assayed to suppress the proliferation of CD4+CD25(−) T cells after anti-CD3 activation in the presence of antigen-presenting cells. […] This effect was even more pronounced at 72 h for the second T cell clone (lower middle panel). […] The control experiment in which Treg was replaced by an identical number of unlabeled CD4+CD25(−) T cells (right panels) eliminated a possible artefact related to variable numbers of total cells in the culture medium.
Next, the kinetics of suppression were analysed. In the experiments shown in FIG. 14b, it can be seen that 48 and 70% of CFSE-labelled CD4+CD25(−) T cells express Annexin V after 18 and 24 h co-incubation with a cytolytic Treg (R3TB7), respectively, using the same assay system as in FIG. 14a. […]

The subject of the next assay is Patients. Description: patients with birch pollen and apple allergy treated with peptide. It is filed as in vivo, human. To be noted: 3 SC injections. The source says: Patients presenting with allergic symptoms upon exposure to birch pollen together with an oro-pharyngeal allergy to ingestion of apple and treated by 3 SC injections of peptide CGPC […] [SEQ ID.
In a further assay the test system is dendritic cells. The format is cell-based.
For the next assay, the system named is spleen CD4+ T cells. Particulars: mouse, in vivo, ip.
Assay [2] has as its system WEHI cells. Description: Wehi cell apoptosis by the G121 regulatory T cell clone with various forms of peptide. It is filed as cell-based, mouse.
For the next assay, the system named is BALB/c mice. To be noted: mouse, in vivo.
The test system of another assay is G221N. The assay is described as follows: peptide processing assay with effector T cell clone G221N. The format is cell-based, mouse.
The next assay relates to polyclonal CD4 cells. The assay is described as follows: apoptosis of polyclonal CD4 cells from peptide 524-543 immunised NOD mice. Particulars: APC loaded with peptide 524-543. The format is cell-based, mouse. The source says:
NOD mice are immunised with peptide containing the thioredoxin consensus sequence in IFA (incomplete Freund adjuvans) from the age of 2 weeks. T cells are expanded in vitro to generate clones with regulatory properties.
The table in FIG. 23 represents the percentage of double positive cells (dead cells) after substraction of background values obtained without the regulatory population.

A further assay concerns NOD mice. Description: spontaneous insulin-dependent diabetes in NOD mice, GAD65 derived peptide. It is filed as in vivo, mouse. The source says: Non-obese diabetes (NOD) mice constitutes a suitable animal model for spontaneous insulin-dependent diabetes.
Adoptive transfer of Treg at the age of 2 weeks in NOD mice, namely before the onset of insulitis (3 weeks of age) is shown to fully prevent the onset of diabetes.
Direct immunisation of NOD mice with the peptide CRLC […] [SEQ ID.
Immunisation with peptide CRLC […] [SEQ ID.

Assay [3] has as its system polyclonal CD4+CD25− cells. Description: bystander suppression assay with CD4+CD25− cells from EAE animals. It is filed as cell-based, mouse. Particulars: 20 μg SC on aluminium hydroxide, three injections. On the procedure: Groups of C57BL/6 mice are immunised subcutaneously (20 μg) with peptide (CHGS […] [SEQ ID. NO: 32], which contains the sequence motif C-X(2)-S) or control peptide ([…] [SEQ ID. NO: 33]) adsorbed onto aluminium hydroxide, Three injections are performed at 2-week intervals. Ten days after the last immunisation, mice are sacrificed and CD4+ T cells (2×10^6 cells) are prepared from the spleen using magnetic beads. CD4+ T cells are then stimulated in vitro by the MOG T cell epitope (20 μg/ml) presented by adherent spleen cells (2×10^6 cells).
After four re-stimulations, a T cell line is tested in a bystander suppression assay with, as target cells, polyclonal CD4+CD25− cells obtained from animals in which EAE (Experimental autoimmune encephalomyelitis) was effective.

The subject of another assay is C57BL/6 mice. Description: prevention of multiple sclerosis by peptide immunisation. The format is in vivo, mouse. Particulars: 5 injections 20 μg in IFA at 14 days interval before disease induction. As to the method:
In the model group, 3 C57BL/6 mice received, at day 0, SC injection of 100 μg MOG peptide/400 μg Mycobacterium butyricum in CFA and ip injection of 300 ng Bortetella pertussis in NaCl. At day +2, a second injection of B. pertussis was given.
In the prevention group, 5 C57BL/6 mice are immunised by 5 injections with 20 μg CSMOG peptide (CHGS […] [SEQ ID. NO: 32]), which contains the sequence motif C-X(2)-S, in IFA at 14 days interval before disease induction as in the model group. Control experiments are performed with the peptide [SEQ ID. NO: 33] lacking the motif at its N-terminus.
Scores were established as 0: no disease, 1: limp tail, 2: limp tail and loss of weight higher than 10%, 3: partial paralysis of hind limbs.

A further assay has as its system MHC II cleft. The assay is described as follows: affinity for the MHC II cleft. The format is binding.
A further assay has as its system CD4+ T cell. The assay is described as follows: CD4+ T cell proliferation elicited by single amino acid p21-35 mutants (IP immunisation in alum). Particulars: mouse, in vivo. As to the method:
Based on findings showing that regulation can be more readily achieved with analogues of T cell epitopes, the capacity of various single amino acid p21-35 mutants to elicit CD4+ T cell after IP immunisation in alum was determined. […] The mutated form of mp21-35 (mp21-35Asn) was therefore use in the remainder of the experiments in this Example.

Consider `O=C(O)CN(CCOCCOCCN(CC(=O)O)CC(=O)O)CC(=O)O` [EGTA], for which the “restoration of WEHI cell survival” value in the assay with WEHI cells [1] was “only partial restoration of Wehi cell survival”. Besides, in the assay with CD4+CD25(−) T cells, the “inhibition of the suppression of bystander T cells” value is listed as “Basically no inhibition”.

In the case of “(CGPC)D-isomer LRAVESYLLAH ([dC]G[dP][dC]LRAVESYLLAH; cysteine pairing not given here) [SEQ ID. NO: 47]”, the “reaction to pollen exposure or apple contact” value in the assay with Patients is on record as “failed to react to either exposure to pollen or contact with apple”. Moreover, the “apoptosis of dendritic cells by CD4+ T cells of treated subjects” value in the assay on dendritic cells (dendritic cells loaded with the Mal d 1 antigen) is listed as “resulted in dendritic cell apoptosis”; with dendritic cells (dendritic cells presenting the Bet v 1 antigen, three SC injections of 50 μg on alum) it was “induced apoptosis of dendritic cells presenting the Bet v 1 antigen”.

Take “QYIKANSKFIGITELGGCHGSEPCIIHRGKPF [mp21-35]”: in the assay with spleen CD4+ T cells, the “Der p 2-induced proliferation of spleen CD4+ T cells” value was “significant reduction”. For the same molecule, the “efficiency in inducing Wehi cell apoptosis in the presence of the G121 Treg, as compared to p21-35” value in the assay on WEHI cells [2] came out at 100 fold. For the same molecule, the “suppression of airway inflammation and hyperreactivity” value with BALB/c mice is “even more effective in suppressing airway inflammation and hyperreactivity”. Besides, in the assay with G221N, the “requirement for internalisation, fusion with and acidification of late endosomes” value is “required internalisation into antigen-presenting cells”; the “requirement for peptide processing” value is recorded as “had to be processed for efficient presentation”.

“CRLC KVAPVIKARMM (CRLCKVAPVIKARMM; modified fragment of glutamic acid decarboxylase (GAD65)) [SEQ ID. NO: 35]”: the “apoptosis induced by polyclonal cells from immunised mice” value with polyclonal CD4 cells is “induce apoptosis in polyclonal CD4 cells”. For the same molecule, in the assay with NOD mice (after 15 weeks of age), the “diabetes and insulitis, suppression by immunisation” value was “suppress diabetes and insulitis”. The “diabetes and insulitis, prevention by direct immunisation” value with NOD mice (from the age of 2 weeks) is “fully prevent diabetes and lesions of insulitis”.

Regarding “CHGS YRSPFSRVVHLYR (CHGSYRSPFSRVVHLYR; reducing motif fused to MOG (Myelin Oligodendrocyte Glycoprotein) peptide) [SEQ ID. NO: 32]”, in assay [3], the “capacity of T cell line from immunised animals to induce death in target cells” value was “have the capacity to induce death in target cells”. In the assay with C57BL/6 mice, the “development of the syndrome (clinical score)” value is “completely abolishes the development of the syndrome”.

In the case of “IIe28Asn: IIe28Asn substitution of Der p 2 peptide p21-35 (CHGSEPCNIHRGKPF; UniProt P49278 38-52, looked up, fragment I28N)”, the “affinity for the MHC II cleft versus natural p21-35” value in the assay with MHC II cleft is on record as “lower affinity”. The “capacity to induce T cell proliferation” value with CD4+ T cell is “only slightly reduced”.

The values above are taken from US11718650B2, “Immunogenic peptides and their use in immune disorders” (IMCYSE SA, priority 2006, dated 2023).
